Experimental data as given in PMC9609996, “SAR Study and Molecular Mechanism Investigation of Novel Naphthoquinone-furan-2-cyanoacryloyl Hybrids with Antitumor Activity” (Pharmaceutics, 2022).
Where two headings read alike, the source gives them in different places.

What was measured:
HCT116 = assay: CCK-8 anti-proliferation assay, HCT116; format: cell-based, human; settings: Homo sapiens, mean ± SD; for inhibition at 20 µM: HCT-116, 20 μM, read-out: Inhibition Rate (%) at 20 μM HCT116
Method: (§1) Human cervical cancer HeLa, human prostate cancer PC3, human colonic carcinoma HCT116, human lung carcinoma A549, human breast cancer MDA-MB-231, mouse melanoma B16, human ovarian cancer SKOV3, human hepatoma Hep3B, and human liver L02 cells were purchased from the Cell Bank of Shanghai Institute of Biochemistry and Cell Biology, Chinese Academy of Sciences (Shanghai, China). The HeLa, A549, B16, PC3, MDA-MB-231, HCT116, and L02 cells were cultured in Dulbecco’s modified Eagle medium (DMEM, Gibco Inc.; Gaithersburg, MD, USA). All cultures were supplied with 10% fetal bovine serum (FBS; YHSM, Beijing, China), 100 IU/mL of penicillin, and 100 μg/mL of streptomycin, and cells were incubated at 37 °C in an atmosphere of 5% CO2.
(§2) A CCK-8 kit (MCE, USA) was used to perform a CCK-8 assay. Cells were plated and grown in the 96-well plates for the indicated period (48 h) in the incubator, followed by an incubation with the CCK-8 solutions for 1–4 h. Subsequently, the absorbance (450 nm) was measured by a microplate reader. The median inhibitory concentration (IC50) was determined from the dose–response curve. Experiments were performed in a triplicate.

MDA-MB-231 = assay: CCK-8 anti-proliferation assay, MDA-MB-231; format: cell-based, human; settings: Homo sapiens, MDA-MB-231, 48 h, mean ± SD
Method: as §1, §2

Hep3B = assay: CCK-8 anti-proliferation assay, Hep3B; format: cell-based, human; settings: Homo sapiens, 48 h, mean ± SD
Method: as §1, §2

L02 cells = assay: CCK-8 assay on normal cells, L02; format: cell-based; settings: L02 human normal hepatocytes, 48 h, mean ± SD
Method: as §1, §2

PC3 = assay: CCK-8 anti-proliferation assay, PC3; format: cell-based, human; settings: Homo sapiens, mean ± SD; for inhibition at 20 µM: PC-3, 20 μM, read-out: Inhibition Rate (%) at 20 μM PC3
Method: as §1, §2

HeLa = assay: CCK-8 anti-proliferation assay, HeLa; format: cell-based, human; settings: Homo sapiens, mean ± SD; for inhibition at 20 µM: read-out: Inhibition Rate (%) at 20 μM HeLa
Method: as §1, §2

A549 = assay: CCK-8 anti-proliferation assay, A549; format: cell-based, human; settings: Homo sapiens, mean ± SD; for inhibition at 20 µM: A549, 20 μM, read-out: Inhibition Rate (%) at 20 μM A549
Method: as §1, §2

B16 = assay: CCK-8 anti-proliferation assay, B16; format: cell-based; settings: Mus musculus, B16, 48 h, B16 mouse melanoma, mean ± SD
Method: as §1, §2

SKOV3 = assay: CCK-8 anti-proliferation assay, SKOV3; format: cell-based; settings: Homo sapiens, SK-OV-3, 48 h, mean ± SD
Method: as §1, §2

[1] = system: four cancer cell lines (HeLa, PC3, A549, and HCT116); assay: CCK-8 inhibition rates over four cancer cell lines; format: cell-based; settings: Homo sapiens
Method: First, the inhibition rates at 20 μM for all newly synthesized compounds were evaluated on four cancer cell lines (HeLa, PC3, A549, and HCT116) by a CCK-8 assay. […] A variety of aliphatic amine substituents were well tolerated (4e, 4f, 5c, and 8f).
as §1, §2

[2] = system: various cancer cell lines; set-up: method as in PMID 23651330; settings: read-out: IC50 against various cancer cell lines; cited from earlier work
[3] = HeLa, PC3, A549, HCT116, CCK-8, read-out: inhibition rate, span over the four cancer cell lines
[4] = one or two of the four cell lines, read-out: inhibition rates against one or two types of tumor cell lines

| SMILES | inhibition at 20 µM (HCT116) [%] | inhibition at 20 µM (PC3) [%] | inhibition at 20 µM (HeLa) [%] | inhibition at 20 µM (A549) [%] | other results |
| --- | --- | --- | --- | --- | --- |
| C[C@H](NC(=O)/C(C#N)=C/c1cccc(Br)n1)c1ccccc1 [WP1066, reference compound] | – | – | – | – | IC50 (HCT116; HCT-116, 48 h): 7.22 ± 3.14 µM; IC50 (MDA-MB-231): 8.17 ± 0.16 µM; IC50 (Hep3B): 4.36 ± 0.05 µM; IC50 (L02 cells): 3.45 ± 0.41 µM; IC50 (PC3; PC-3, 48 h, 48 h): 1.2 ± 0.03 µM; IC50 (HeLa; 48 h): 7.06 ± 1.17 µM; IC50 (A549; A549, 48 h, 48 h): 7.55 ± 0.06 µM; IC50 (B16): 24.1 ± 0.7 µM; IC50 (SKOV3): 4.66 ± 0.13 µM |
| COc1cc(-c2ccc(/C=C(\C#N)C(=O)NCCN3CCOCC3)o2)c(OC)c2ccccc12 [Compound 4c, (E)-2-cyano-3-(5-(1,4-dimethoxynaphthalen-2-yl)furan-2-yl)-N-(2-morpholinoethyl)acrylamide] | 18.78 ± 0.04 | 8.99 ± 0.09 | 24.23 ± 0.01 | 11.25 ± 0.05 | inhibition at 20 µM [1, 3]: 8.99 to 24.2% |
| NS(=O)(=O)c1cccc2c1C(=O)C=C(Nc1cccnc1)C2=O [Ly-5] | – | – | – | – | IC50 [2]: 0.5 to 1.4 µM |
| COc1cc(N2CCC(N(C)C)CC2)ccc1NC(=O)c1ccc(-c2cc(OC)c3ccccc3c2OC)o1 [Compound 8i, 5-(1,4-Dimethoxynaphthalen-2-yl)-N-(4-(4-(dimethylamino)piperidin-1-yl)-2-methoxyphenyl)furan-2-carboxamide] | 47.78 ± 0.19 | 25.11 ± 0.05 | 55.62 ± 0.12 | 31.67 ± 0.07 | inhibition at 20 µM [1, 4]: > 50% |
| COc1cc(-c2ccc(/C=C(\C#N)C(=O)Nc3ccccc3)o2)c(OC)c2ccccc12 [Compound 4h, (E)-2-cyano-3-(5-(1,4-dimethoxynaphthalen-2-yl)furan-2-yl)-N-phenylacrylamide] | 11.5 ± 0.14 | 19.53 ± 0.17 | 9.49 ± 0.16 | 0.25 ± 0.13 | inhibition at 20 µM [1, 3]: 0.25 to 32.4% |
| CC(NC(=O)c1ccc(C2=CC(=O)c3ccccc3C2=O)o1)c1ccccc1 (stereo not shown) [Compound 9b, 5-(1,4-Dioxo-1,4-dihydronaphthalen-2-yl)-N-(1-phenylethyl)furan-2-carboxamide] | 7.22 ± 0.34 | 12.82 ± 0.01 | 18.65 ± 0.16 | 8.8 ± 0.04 | – |
| COc1cc(-c2ccc(/C=C(\C#N)C(=O)NC3CC(C)(C)NC(C)(C)C3)o2)c(OC)c2ccccc12 [Compound 4e, (E)-2-cyano-3-(5-(1,4-dimethoxynaphthalen-2-yl)furan-2-yl)-N-(2,2,6,6-tetramethylpiperidin-4-yl)acrylamide] | 40.53 ± 0.03 | 15.8 ± 0.33 | 59.1 ± 0.21 | 59.49 ± 0.34 | inhibition at 20 µM [1, 4]: > 50% |
